Test results as given in patent US7326732B2, “EP2 receptor agonists” (Pharmagene Laboratories Limited, priority 2004, dated 2008).
Read-outs that look alike come from different tables or passages of the source.

How the values were obtained:
[1] = target: T1, human EP2 prostanoid receptors (Homo sapiens, UniProt P43116); experiment: Agonist activity at recombinant human EP2 prostanoid receptors (cAMP in HEK-293 clones); format: cell-based; details: for activity (EP2 part): functional classification at EP2
T1 construct: expressed in transfected cells; host or cells: HEK-293

human EP4 receptor = target: T2, human EP4 receptor (Homo sapiens, UniProt P35408); experiment: Binding ability to human EP receptors ([3H]PGE2 displacement), EP4; details: membranes expressing human EP4; [3H]PGE2 1 nM; Cheng-Prusoff; read-out: pKi (M) EP4 (converted)
T2 construct: expressed in transfected cells
Outline: (§1)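 Membranes from cells stably expressing human EP2, EP3 or EP4 incubated to equilibrium with [3H]PGE2 and compound at 0.1 to 10 000 nM. Non-specific binding defined with 10 uM PGE2; bound label separated by vacuum filtration and quantified by scintillation counting.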

human EP2 receptor = target: T3, human EP2 receptor (Homo sapiens, UniProt P43116); experiment: Binding ability to human EP receptors ([3H]PGE2 displacement), EP2
T3 construct: expressed in transfected cells
Outline: as §1

human EP3 receptor = target: T4, human EP3 receptor (Homo sapiens, UniProt P43115); experiment: Binding ability to human EP receptors ([3H]PGE2 displacement), EP3; details: membranes expressing human EP3; [3H]PGE2 2.5 nM; Cheng-Prusoff; read-out: pKi (M) EP3 (converted)
T4 construct: expressed in transfected cells
T4 sequence (P43115 1-390): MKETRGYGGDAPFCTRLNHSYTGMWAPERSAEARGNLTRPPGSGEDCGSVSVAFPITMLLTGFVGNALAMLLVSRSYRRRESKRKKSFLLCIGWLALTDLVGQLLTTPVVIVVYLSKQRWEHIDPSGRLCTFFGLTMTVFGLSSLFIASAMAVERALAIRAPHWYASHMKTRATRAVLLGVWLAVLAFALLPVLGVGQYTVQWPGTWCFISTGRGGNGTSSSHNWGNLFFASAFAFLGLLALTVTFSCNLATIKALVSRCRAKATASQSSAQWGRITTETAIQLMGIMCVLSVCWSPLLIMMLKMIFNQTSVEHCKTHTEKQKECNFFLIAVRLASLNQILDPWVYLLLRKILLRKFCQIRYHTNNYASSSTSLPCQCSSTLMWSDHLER
Outline: as §1

[2] = HEK-293 stably transfected with human EP2, cAMP accumulation, read-out: pEC50 EP2 (converted)
[3] = membranes expressing human EP2, [3H]PGE2 3 nM, Cheng-Prusoff, read-out: pKi (M) EP2 (converted)

T2 sequence (P35408 whole entry): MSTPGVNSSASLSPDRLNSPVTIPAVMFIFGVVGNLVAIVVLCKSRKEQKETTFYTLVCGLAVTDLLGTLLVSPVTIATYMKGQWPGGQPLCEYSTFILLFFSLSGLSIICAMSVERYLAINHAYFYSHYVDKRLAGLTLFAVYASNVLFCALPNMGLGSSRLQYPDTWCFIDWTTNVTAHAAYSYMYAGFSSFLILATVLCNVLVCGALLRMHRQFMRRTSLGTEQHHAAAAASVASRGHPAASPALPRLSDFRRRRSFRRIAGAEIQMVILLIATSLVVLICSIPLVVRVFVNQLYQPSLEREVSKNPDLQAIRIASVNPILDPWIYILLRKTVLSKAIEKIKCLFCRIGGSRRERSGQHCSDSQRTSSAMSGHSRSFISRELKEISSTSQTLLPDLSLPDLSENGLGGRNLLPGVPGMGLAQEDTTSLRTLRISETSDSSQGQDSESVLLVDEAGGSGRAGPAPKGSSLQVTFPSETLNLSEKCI
T3 sequence (P43116 whole entry): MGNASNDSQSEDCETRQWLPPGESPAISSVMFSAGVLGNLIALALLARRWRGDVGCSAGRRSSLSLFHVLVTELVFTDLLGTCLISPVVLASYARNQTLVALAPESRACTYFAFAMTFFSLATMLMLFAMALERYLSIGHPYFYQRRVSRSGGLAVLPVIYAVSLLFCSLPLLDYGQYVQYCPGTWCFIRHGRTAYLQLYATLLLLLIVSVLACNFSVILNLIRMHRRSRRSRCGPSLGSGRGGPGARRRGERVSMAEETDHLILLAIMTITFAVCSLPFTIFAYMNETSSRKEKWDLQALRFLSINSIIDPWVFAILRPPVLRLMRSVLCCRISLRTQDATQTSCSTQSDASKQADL
T1 sequence (P43116 whole entry): as above

EC50 [1, 2] [µM]	activity (EP2 part) [1]	Ki (human EP4 receptor) [M]	Ki (human EP2 receptor; [3]) [M]	Ki (human EP3 receptor) [M]	EC50 [1] [µM]	Ki (human EP2 receptor) [M]	SMILES
< 0.1	EP2 Agonist	> 1e-05	< 1e-07	> 1e-05			O=C(Nc1cccc(Cc2nnn[nH]2)c1)c1cccc(-c2ccc(Cl)cc2)n1 [Compound 95, 6-(4-Chloro-phenyl)-pyridine-2-carboxylic acid [3-(1H-tetrazol-5ylmethyl)-phenyl]-amide]
< 1	EP2 Agonist	> 1e-05	< 1e-06	> 1e-05			CC/C(=C\c1cccc(NC(=O)c2ccc(-c3ccccc3)o2)c1)C(=O)O [Compound 98, 2-{3-[(5-Phenyl-furan-2-carbonyl)-amino]-benzylidene}-butyric acid]
< 0.1	EP2 Agonist	> 1e-05	< 1e-07	> 1e-05			O=C(O)/C=C/c1cccc(NC(=O)c2ccc(-c3ccc4c(c3)OCO4)o2)c1 [Compound 101, 3-{3-[(5-Benzo[1,3]dioxol-5-yl-furan-2-carbonyl)-amino]-phenyl}-acrylic acid]
< 0.1	EP2 Agonist	> 1e-05	< 1e-07	> 1e-05			O=C(O)/C=C/c1cccc(NC(=O)c2cc(-c3ccccc3)ccc2F)c1 [Compound 107, 3-{3-[(4-Fluoro-biphenyl-3-carbonyl)-amino]-phenyl}-acrylic acid]
< 0.1	EP2 Agonist	> 1e-05	< 1e-07	> 1e-05			O=C(O)/C=C/c1cccc(NC(=O)c2cc(-c3cccc(F)c3)ccc2F)c1 [Compound 108, 3-{3-[(4,3′-Difluoro-biphenyl-3-carbonyl)-amino]-phenyl}-acrylic acid]
< 0.1	EP2 Agonist	> 1e-05	< 1e-07	> 1e-05			O=C(O)/C=C/c1cccc(NC(=O)c2cccc(-c3cccc(F)c3)n2)c1 [Compound 110, 3-(3-{[6-(3-Fluoro-phenyl)-pyridine-2-carbonyl]-amino}-phenyl)-acrylic acid]
< 0.1	EP2 Agonist	> 1e-05	< 1e-07	> 1e-05			O=C(O)/C=C/c1cccc(NC(=O)c2cc(-c3ccc(F)cc3)ccc2F)c1 [Compound 112, 3-{3-[(4,4′-Difluoro-biphenyl-3-carbonyl)-amino]-phenyl}-acrylic acid]
< 0.1	EP2 Agonist	> 1e-05	< 1e-07	> 1e-05			O=C(O)Cc1cccc(NC(=O)c2cccc(-c3cccc(F)c3)n2)c1 [Compound 113, (3-{[6-(3-Fluoro-phenyl)-pyridine-2-carbonyl]-amino}-phenyl)-acetic acid]
< 0.1	EP2 Agonist	> 1e-05	< 1e-07	> 1e-05			O=C(O)/C=C/c1cccc(NC(=O)c2csc(-c3cccc(F)c3)n2)c1 [Compound 116, 3-(3-{[2-(3-Fluoro-phenyl)-thiazole-4-carbonyl]-amino}-phenyl)-acrylic acid]
< 1	EP2 Agonist	> 1e-05	< 1e-05	> 1e-05			O=C(O)/C=C/c1cccc(CC(=O)c2ccc(-c3ccccc3)o2)c1 [Compound 120, 3-{3-[2-Oxo-2-(5-phenyl-furan-2-yl)-ethyl]-phenyl}-acrylic acid]
< 0.1	EP2 Agonist	> 1e-05	< 1e-07	> 1e-05			O=C(O)/C=C/c1cccc(NC(=O)c2cccc(-c3cc(Cl)cc(Cl)c3)n2)c1 [Compound 132, 3-(3-{[6-(3,5-Dichloro-phenyl)-pyridine-2-carbonyl]-amino}-phenyl)-acrylic acid]
< 0.1	EP2 Agonist	> 1e-05	< 1e-07	> 1e-05			O=C(O)CCc1cccc(NC(=O)c2cccc(-c3cc(Cl)cc(Cl)c3)n2)c1 [Compound 134, 3-(3-{[6-(3,5-Dichloro-phenyl)-pyridine-2-carbonyl]-amino}-phenyl)-propionic acid]
< 0.1	EP2 Agonist	> 1e-05	< 1e-07	> 1e-05			O=C(O)COc1cccc(NC(=O)c2cc(-c3cccc(Cl)c3)ccc2F)c1 [Compound 140, {3-[(3′-Chloro-4-fluoro-biphenyl-3-carbonyl)-amino]-phenoxy}-acetic acid]

Second part, the molecule before the results:

SMILES	EC50 [1, 2] [µM]	activity (EP2 part) [1]	Ki (human EP4 receptor) [M]	Ki (human EP2 receptor; [3]) [M]	Ki (human EP3 receptor) [M]	EC50 [1] [µM]	Ki (human EP2 receptor) [M]
O=C(Nc1ccc2sc(C(=O)O)cc2c1)c1ccc(-c2ccccc2)o1 [Compound 97, 5-[(5-Phenyl-furan-2-carbonyl)-amino]-benzo[b]thiophene-2-carboxylic acid]	< 1	EP2 Agonist	> 1e-05	< 1e-06	> 1e-05		
O=C(O)/C=C/c1cccc(NC(=O)c2ccc(-c3cccc(F)c3)o2)c1 [Compound 100, 3-(3-{[5-(3-Fluoro-phenyl)-furan-2-carbonyl]-amino}-phenyl)-acrylic acid]	< 0.1	EP2 Agonist	< 1e-05	< 1e-07	> 1e-05		
O=C(O)Cc1cccc(NC(=O)c2cc(-c3cccc(F)c3)ccc2F)c1 [Compound 111]	< 0.1	EP2 Agonist	> 1e-05	< 1e-07	> 1e-05		
O=C(O)/C=C/c1cccc(NC(=O)c2csc(-c3ccccc3)n2)c1 [Compound 115, 3-{3-[(2-Phenyl-thiazole-4-carbonyl)-amino]-phenyl}-acrylic acid]	< 0.1	EP2 Agonist	> 1e-05	< 1e-07	> 1e-05		
O=C(O)Cc1cccc(C(=O)Nc2cccc(-c3ccccc3)c2)c1 [Compound 117, [3-(Biphenyl-3-ylcarbamoyl)-phenyl]-acetic acid]	< 10	EP2 Agonist	> 1e-05	< 1e-06	> 1e-05		
Cn1c(C(=O)O)cc2cc(NC(=O)c3ccc(-c4ccccc4)o3)ccc21 [Compound 118, 1-Methyl-5-[(5-phenyl-furan-2-carbonyl)-amino]-1H-indole-2-carboxylic acid]	< 0.1	EP2 Agonist	> 1e-05	< 1e-06	> 1e-05		
O=C(O)/C=C/c1cccc(OCc2csc(-c3ccccc3)n2)c1 [Compound 121, 3-[3-(2-Phenyl-thiazol-4-ylmethoxy)-phenyl]-acrylic acid]	< 1	EP2 Agonist	> 1e-05	< 1e-06	> 1e-05		
O=C(O)Cc1cccc(NC(=O)c2ccc(-c3cc(F)cc(F)c3)o2)c1 [Compound 127, (3-{[5-(3,5-Difluoro-phenyl)-furan-2-carbonyl]-amino}-phenyl)-acetic acid]	< 0.1	EP2 Agonist	> 1e-05	< 1e-07	> 1e-05		
O=C(O)Cc1cccc(NC(=O)c2ccc(-c3cccc(F)c3)o2)c1 [Compound 128, (3-{[5-(3-fluoro-phenyl)-furan-2-carbonyl]-amino}-phenyl)-acetic acid]	< 0.1	EP2 Agonist	> 1e-05	< 1e-06	> 1e-05		
O=C(Nc1ccc2[nH]c(C(=O)O)cc2c1)c1cccc(-c2cc(Cl)cc(Cl)c2)n1 [Compound 135, 5-{[6-(3,5-Dichloro-phenyl)-pyridine-2-carbonyl]-amino}-1H-indole-2-carboxylic acid]	< 1	EP2 Agonist	> 1e-05	< 1e-06	> 1e-05		
O=C(O)/C=C/c1cccc(NC(=O)c2cccc(-c3cccc(Cl)c3)n2)c1 [Compound 137, 3-(3-{[6-(3-Chloro-phenyl)-pyridine-2-carbonyl]-amino}-phenyl)-acrylic acid]		EP2 Agonist	< 1e-06		> 1e-05	< 0.1	< 1e-07
O=C(O)/C=C/c1cccc(NC(=O)c2cc(-c3cccc(Cl)c3)ccc2F)c1 [Compound 142, 3-{3-[(3′-Chloro-4-fluoro-biphenyl-3-carbonyl)-amino]-phenyl}-acrylic acid]	< 0.1	EP2 Agonist	> 1e-05	< 1e-07	> 1e-05		
O=C(O)COc1cccc(NC(=O)c2cc(-c3cc(Cl)cc(Cl)c3)ccc2F)c1 [Compound 143, {3-[(3′,5′-Dichloro-4-fluoro-biphenyl-3-carbonyl)-amino]-phenoxy}-acetic acid]	< 0.1	EP2 Agonist	> 1e-05	< 1e-07	> 1e-05		
